Measured values published in US11135224B2, “Methods of sensitizing estrogen receptor positive (ER+) breast cancer cells to endocrine therapy” (New York University, priority 2018, dated 2021).

Tests used:
[1] = test system: global protein synthesis in TamS and TamR cells; assay: [35S]-methionine metabolic labeling, overall protein synthesis; type: cell-based, human; conditions: 10 μM for 24 hours, [35S]-methionine labeling 30 minutes
Experimental: Hsp70 (loading control). […] Cells were treated with DMSO, 1 μM 4-OH Tam, 4-OH Tam and CGP 57380 (10 μM), or 1 μM 4-OH Tam, CGP57380, and 20 nM RAD001 therapies 24 hours after plating. Treatment was changed every 72 hours. Colonies were scored after 10 days counting only >50 cells/colony. Results are representative of three independent experiments. SEM is shown. […] Results from three independent experiments. Error bars represent SEM (n.s.=not significant). […] Equal amounts of RNA were resolved by sucrose gradient centrifugation and ribosome profiles monitored by UV absorbance 254 nm. Results are representative images of two independent experiments.
^35S-Methionine Metabolic Protein Labeling: Global protein synthesis was measured as previously described (Ramirez-Valle et al., “eIF4GI Links Nutrient Sensing by mTOR to Cell Proliferation and Inhibition of Autophagy,” J. Cell Biol. 181(2):293-307 (2008), which is incorporated herein by reference in its entirety). Cells (2×10^5) were seeded, in triplicate, into 6-well culture plates and allowed to adhere for 48-72 hours. Cells were labeled with 25 μCi ^355-methionine/cysteine protein labeling mix (PerkinElmer) for 30 minutes at 37° C. using DMEM without L-Methionine or L-Cysteine supplemented with 5% FBS. […] Protein concentration was measured by the BCA assay (Thermo Scientific). […]

Runx2 mRNA = Runx2 mRNA levels (RT-qPCR) after CGP57380; type: cell-based, human; conditions: treated vs untreated cells
Experimental: Quantitative Real-Time PCR (RT-qPCR) and Analysis: RNA was extracted using Trizol as per the manufacturer's instructions. One microgram of RNA was used for reverse transcription reaction using Promega GoScript, as per the manufacturer's instructions. qRT-PCR was completed using iTaq Universal 2× SYBR Green qPCR master mix (Bio-Rad) and an Applied Biosystems 7500 Fast RT-PCR machine as per the manufacturers' instructions. Fold change was calculated using the 2^−ΔΔCt method.
The biological functions of mRNAs identified as highly eIF4E-dependent in tamoxifen-resistant cells were next assessed. Of these, Runx2 was particularly notable because it encodes a protein with a number of activities that could play a role in tamoxifen resistance, as it is an important inhibitor of estrogen signaling and stimulates oncogenic pathways. […] It was also determined whether Runx2 mRNA requires eIF4E S209 phosphorylation by Mnk1. Cells were untreated or treated with CGP57380, and Runx2 mRNA and protein levels were determined.

Nc1ncnc2n[nH]c(Nc3ccc(F)cc3)c12 [CGP57380]
reduction in global protein synthesis [1]: 10% | Runx2 mRNA levels (Runx2 mRNA): no statistically significant difference
